Test results taken from ChEMBL document CHEMBL5046261, “Flavonostilbenes Isolated from the Stems of Rhamnoneuron balansae as Potential SIRT1 Activators” (J Nat Prod, 2022).
Calls of active or inactive are those of the source. The rule behind the calls is not given here.

Columns and labels:
C2C12 [1] = assay: Effect on AMPK in mouse C2C12 myotubes assessed as increase in AMPK-alpha phosphorylation at Thr172 at 1 mM measured after 1 hrs by western blot analysis; assay type: functional, cell-based
HEK293 = assay: Cytotoxicity against human HEK293 cells assessed as cell viability at 20 uM measured after 24 hrs by MTT assay; assay type: toxicity, cell-based; settings: hek293, 24 h
[2] = target: T1, NAD-dependent protein deacetylase sirtuin-1 (Homo sapiens) (UniProt Q96EB6); assay: Activation of SIRT1 (unknown origin) expressed in human HEK293 cells assessed as decrease in p53 transcriptional activity at 20 uM measured after 24 hrs by luciferase reporter gene assay; assay type: cell-based; settings: filed as activator
T1 sequence (whole entry): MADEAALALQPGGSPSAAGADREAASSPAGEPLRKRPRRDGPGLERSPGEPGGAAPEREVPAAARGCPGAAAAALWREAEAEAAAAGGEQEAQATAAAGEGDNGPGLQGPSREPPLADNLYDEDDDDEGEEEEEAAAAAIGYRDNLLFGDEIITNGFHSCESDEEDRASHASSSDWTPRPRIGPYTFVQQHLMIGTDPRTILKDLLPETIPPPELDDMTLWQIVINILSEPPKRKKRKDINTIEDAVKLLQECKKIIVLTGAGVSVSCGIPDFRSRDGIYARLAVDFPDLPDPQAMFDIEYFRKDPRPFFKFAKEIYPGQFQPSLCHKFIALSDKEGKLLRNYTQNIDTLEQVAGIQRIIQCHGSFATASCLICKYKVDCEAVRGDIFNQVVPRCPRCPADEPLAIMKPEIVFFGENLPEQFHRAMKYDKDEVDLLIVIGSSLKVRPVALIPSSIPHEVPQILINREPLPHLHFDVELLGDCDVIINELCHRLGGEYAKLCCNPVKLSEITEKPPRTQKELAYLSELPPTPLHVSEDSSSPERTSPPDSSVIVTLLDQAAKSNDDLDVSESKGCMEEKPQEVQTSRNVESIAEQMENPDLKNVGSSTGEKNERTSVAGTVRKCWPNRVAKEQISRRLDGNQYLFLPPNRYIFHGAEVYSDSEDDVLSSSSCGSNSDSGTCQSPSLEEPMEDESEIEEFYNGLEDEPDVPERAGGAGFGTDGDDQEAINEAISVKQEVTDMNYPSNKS

[3] = target: T1, NAD-dependent protein deacetylase sirtuin-1 (Homo sapiens); assay: Activation of SIRT1 (unknown origin) expressed in human HEK293 cells assessed as increase in NAD+/NADH ratio at 10 to 40 uM in presence of NAD+ as substrate incubated for 12 hrs by NAD+/NADH assay based fluorescence microplate reader; assay type: cell-based; settings: filed as activator, dose 10-40 µM
[4] = target: T1, NAD-dependent protein deacetylase sirtuin-1 (Homo sapiens); assay: Activation of SIRT1 (unknown origin) expressed in human HEK293 cells assessed as decrease in luciferase activity at 20 uM measured after 24 hrs by luciferase reporter gene assay; assay type: cell-based; settings: filed as activator
[5] = target: T1, NAD-dependent protein deacetylase sirtuin-1 (Homo sapiens); assay: Activation of SIRT1 (unknown origin) expressed in human HEK293 cells assessed as increase in deacetylase activity from 1.25 to 20 uM measured after 24 hrs by luciferase reporter gene assay; assay type: cell-based; settings: filed as activator, dose 1.25-20 µM
[6] = target: T1, NAD-dependent protein deacetylase sirtuin-1 (Homo sapiens); assay: Activation of SIRT1 (unknown origin) expressed in human HEK293 cells assessed as decrease in luciferase activity at 5 uM measured after 24 hrs by luciferase reporter gene assay; assay type: cell-based; settings: filed as activator
[7] = target: T1, NAD-dependent protein deacetylase sirtuin-1 (Homo sapiens); assay: Activation of SIRT1 (unknown origin) expressed in human HEK293 cells assessed as increase intracellular NAD+ level at 10 uM in presence of NAD+ as substrate incubated for 12 hrs by NAD+/NADH assay based fluorescence microplate reader; assay type: cell-based; settings: filed as activator
[8] = target: T1, NAD-dependent protein deacetylase sirtuin-1 (Homo sapiens); assay: Activation of SIRT1 (unknown origin) expressed in human HEK293 cells assessed as increase intracellular NAD+ level at 20 uM in presence of NAD+ as substrate incubated for 12 hrs by NAD+/NADH assay based fluorescence microplate reader; assay type: cell-based; settings: filed as activator
C2C12 [9] = assay: Effect on AMPK in mouse C2C12 myotubes assessed as increase in AMPK-alpha phosphorylation at Thr172 at 5 to 10 uM measured after 1 hrs by western blot analysis; assay type: functional, cell-based; settings: dose 5-10 µM
C2C12 [10] = assay: Cytotoxicity against mouse C2C12 myotubes assessed as cell viability at 10 to 40 uM measured after 24 hrs by MTT assay; assay type: toxicity, cell-based; settings: c2c12, 24 h, dose 10-40 µM

| Activity [2] | Compound | Activity (HEK293) | further results |
| --- | --- | --- | --- |
|  | NC(=O)c1ncn([C@@H]2O[C@H](CO)[C@@H](O)[C@H]2O)c1N |  | Activity (C2C12 [1]): Active |
| Active | O=c1c(O)c(-c2ccc(O)cc2)oc2cc(O)c(-c3cc(/C=C/c4cc(O)cc(O)c4)ccc3O)c(O)c12 | Non-Toxic |  |
|  | O=c1c(O)c(-c2ccc(O)cc2)oc2cc3c(c(O)c12)[C@@H](c1cc(O)cc(O)c1)[C@@H](c1ccc(O)cc1)O3 | Non-Toxic |  |
|  | Oc1ccc(/C=C/c2cc(O)cc(O)c2)cc1 |  | Activity [3]: Dose-Dependent Effect; Activity [4]: Active |
| Active | O=C1c2c(O)cc(O)c(-c3cc(/C=C/c4cc(O)cc(O)c4)ccc3O)c2O[C@H](c2ccc(O)cc2)[C@H]1O | Non-Toxic | Activity [5]: Dose-Dependent Effect; Activity [6]: Active; Activity [7]: Active; Activity [8]: Active; Activity (C2C12 [9]): Active; Activity (C2C12 [10]): Non-Toxic |
| Active | O=C1c2c(cc(O)c(-c3cc(/C=C/c4cc(O)cc(O)c4)ccc3O)c2O)O[C@H](c2ccc(O)c(O)c2)[C@H]1O | Non-Toxic |  |
| Active | O=c1c(O)c(-c2ccc(O)cc2)oc2c(-c3cc(/C=C/c4cc(O)cc(O)c4)ccc3O)c(O)cc(O)c12 | Non-Toxic |  |
|  | O=C1c2c(O)cc3c(c2O[C@@H](c2ccc(O)cc2)[C@@H]1O)[C@H](c1cc(O)cc(O)c1)[C@@H](c1ccc(O)cc1)O3 | Non-Toxic |  |
| Active | O=c1c(O)c(-c2ccc(O)c(O)c2)oc2c(-c3cc(/C=C/c4cc(O)cc(O)c4)ccc3O)c(O)cc(O)c12 | Non-Toxic |  |
|  | O=c1c(O)c(-c2ccc(O)cc2)oc2c3c(cc(O)c12)O[C@@H](c1ccc(O)cc1)[C@H]3c1cc(O)cc(O)c1 | Non-Toxic |  |
|  | O=c1c(O)c(-c2ccc(O)cc2)oc2cc3c(c(O)c12)[C@@H](c1cc(O)cc(O)c1)[C@H](c1ccc(O)cc1)O3 | Non-Toxic |  |
|  | O=c1c(O)c(-c2ccc(O)c(O)c2)oc2cc3c(c(O)c12)[C@@H](c1cc(O)cc(O)c1)[C@H](c1ccc(O)cc1)O3 | Non-Toxic |  |
|  | O=c1c(O)c(-c2cc(O)c(O)c(O)c2)oc2c3c(cc(O)c12)O[C@H](c1ccc(O)cc1)[C@H]3c1cc(O)cc(O)c1 | Non-Toxic |  |
